Paper PMC9285603, “Flavan‐3‐ol Microbial Metabolites Modulate Proteolysis in Neuronal Cells Reducing Amyloid‐beta (1‐42) Levels” (Molecular Nutrition & Food Research, 2021)
Read-outs that look alike come from different tables or passages of the source.

Columns and labels:
[1] = tested on: human neuroblastoma SH‐SY5Y cells; parameters: method as in PMID 28891114; details: cited from earlier work
[2] = parameters: method as in PMID 28891114; details: compared with parental compound EGCG; cited from earlier work
[3] = tested on: brown adipocytes; parameters: method as in PMID 28276197; details: cited from earlier work
[4] = molecular target: T1, constitutive 20S proteasome (Bos taurus, UniProt Q2TBP0+Q32KL2+Q3MHN0); assay: In vitro activity assays on isolated constitutive 20S proteasome (fluorogenic peptides); type: biochemical; details: isolated 20S from bovine brain
T1 construct: isolated constitutive and immunoproteasomes purified from bovine brain and thymus, respectively; from tissue; host or cells: bovine brain
Experimental: (§1) PVLs effects on the 20S constitutive and immunoproteasome peptidase activities were measured through in vitro assays performed with fluorogenic peptides as substrates. Isolation and purification of the 20S proteasome from bovine brain and thymus were performed as previously reported.^[ [23] ^] The incubation mixture contained the compound at concentrations ranging from 0.0 to 10 µM, 1 µg of the isolated 20S proteasome, the appropriate substrate (5 µM final concentration), and 50 mm Tris/HCl (pH 8.0), up to a final volume of 100 µL. Purified proteasomes were always preincubated with each compound at 37°C for 30 min before the fluorogenic peptide substrates were added to the reaction mixture. Final incubation was performed at 37°C, and after 60 min the fluorescence of the hydrolyzed 7‐amino‐4‐methyl‐coumarin (AMC) and 4‐aminobenzoic acid (pAB) was detected (AMC, λexc = 365 nm, λem = 449 nm; pAB, λexc = 304 nm, λem = 664 nm) on a SpectraMax Gemini XPS microplate reader.
(§2) PVLs were first tested on isolated constitutive and immunoproteasomes purified from bovine brain and thymus, respectively. The constitutive 20S proteasome is a barrel‐shaped complex of four stacked rings, made of seven α subunits in the two outer rings and seven β subunits in the two inner rings, the latter bearing the catalytically active sites in the β1, β2, and β5 subunits. Treatment with inflammatory cytokines induces the transcription of three additional active subunits, known as β1i, β2i, and β5i, that replace constitutive homologues during proteasome assembly.^[ [28] ^] Proteasome proteolytic activities depend on the hydroxyl group of the N‐terminal threonine (Thr‐1) residue, responsible for cleaving peptides through a nucleophilic attack.^[ [29] ^]

[5] = molecular target: T2, 20S immunoproteasome (Bos taurus, UniProt Q3SZC2+Q3T0T1+Q3T112); assay: In vitro activity assays on isolated immunoproteasome (fluorogenic peptides); type: biochemical; details: isolated 20S from bovine thymus
T2 construct: isolated constitutive and immunoproteasomes purified from bovine brain and thymus, respectively; from tissue; host or cells: bovine thymus
Experimental: as §1, §2

[6] = molecular target: T3, 26S proteasome (Homo sapiens, UniProt P28074); assay: 26S proteasome ChT‐L activity in cell lysates (fluorimetric); type: cell-based; details: cellular lysates, 24‐h exposure; versus untreated cells
T3 construct: ChT‐L activity of the 26S proteasome measured in control and transfected SH‐SY5Y cells; endogenous in cells; host or cells: SH-SY5Y (control, APPwt- and APPmut-transfected)
T3 sequence (P28074 60-263): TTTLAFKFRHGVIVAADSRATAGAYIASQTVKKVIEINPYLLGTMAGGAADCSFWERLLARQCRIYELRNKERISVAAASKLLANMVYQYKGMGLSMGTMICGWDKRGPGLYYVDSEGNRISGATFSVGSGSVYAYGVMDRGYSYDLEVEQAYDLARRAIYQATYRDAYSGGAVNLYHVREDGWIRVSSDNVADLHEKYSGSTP
Experimental: (§3) Cell viability was evaluated with the 3‐(4,5‐dimethylthiazol‐2‐yl)‐2,5‐diphenyltetrazolium bromide assay (MTT).^[ [25] ^] Upon 6 h and 24 h treatment with increasing concentrations (0‐10 µM) of C1, C2, and C3 dissolved in DMSO, cells were washed in PBS, pH 7.5, and then MTT (final concentration 0.5 mg mL^−1) was added to the culture medium without FBS and incubated for 2 h at 37 °C. The medium was then removed and replaced with 100 µL of DMSO. The optical density was measured at 550 nm in a microtiter plate reader. At least six cultures were utilized for each time point. […] Protein concentration was determined by the method of Bradford using bovine serum albumin (BSA) as standard.^[ [26] ^]
(§4) The effects on the proteasome system were evaluated through fluorimetric assays, as previously reported,^[ [27] ^] using the following synthetic substrates: Leu‐Leu‐Val‐Tyr‐AMC for ChT‐L, Leu‐Ser‐Thr‐Arg‐AMC for T‐L, Leu‐Leu‐Glu‐AMC for PGPH, and Gly‐Pro‐Ala‐Leu‐Ala‐AMC for BrAAP, whose test is performed with the addition of the aminopeptidase‐N (AP‐N). […] Incubation was performed at 37 °C, and after 60 min, the fluorescence of the hydrolyzed 7‐amino‐4‐methyl‐coumarin (AMC) was recorded (AMC, λexc = 365 nm, λem = 449 nm) on a SpectraMax Gemini XPS microplate reader. […] The fluorescence values of lysates were subtracted of the values of control assays in the presence of the two inhibitors.

[7] = tested on: ubiquitin‐protein conjugates and p27; assay: Western blot of proteasome substrates (ubiquitin‐protein conjugates, p27); type: cell-based, human
Experimental: (§5) Cell viability was evaluated with the 3‐(4,5‐dimethylthiazol‐2‐yl)‐2,5‐diphenyltetrazolium bromide assay (MTT).^[ [25] ^] Upon 6 h and 24 h treatment with increasing concentrations (0‐10 µM) of C1, C2, and C3 dissolved in DMSO, cells were washed in PBS, pH 7.5, and then MTT (final concentration 0.5 mg mL^−1) was added to the culture medium without FBS and incubated for 2 h at 37 °C. The medium was then removed and replaced with 100 µL of DMSO. The optical density was measured at 550 nm in a microtiter plate reader. At least six cultures were utilized for each time point. Neuroblastoma cells, control and transfected cells, were then treated with C1, C2, and C3 for 6 and 24 h at the concentrations 0–1–5 µM. Compounds were dissolved in DMSO and then added to cell culture media. Control cells were included in each time point. After removing the medium and washing with cold phosphate buffered saline (PBS), cells were harvested in 4 mL of PBS and centrifuged at 1600 × g for 5 min. The pellet was resuspended in lysis buffer (20 mM Tris, pH 7.4, 250 mM sucrose, 1 mM EDTA, and 5 mM β‐mercaptoethanol) and passed through a 29‐gauge needle at least ten times. Lysates were centrifuged at 12 000×g for 15 min and the supernatants were stored at ‐80°C until use. Protein concentration was determined by the method of Bradford using bovine serum albumin (BSA) as standard.^[ [26] ^]
(§6) Proteins were resolved on SDS–PAGE and electroblotted onto PVDF membranes. Membranes with transferred proteins were incubated with the primary monoclonal antibody and successively with the specific peroxidase conjugated secondary antibody. Monoclonal antibodies against Ub and p27 were obtained from Santa Cruz Biotechnology, Inc. (Heidelberg, Germany). SQSTM1/p62 (sequestosome 1, herein p62) mouse monoclonal antibody was from Sigma‐Aldrich S.r.L. (Milano, Italy) and the anti‐LC3B antibody was purchased from Cell Signaling Technology, Inc. The immunoblot detection was performed with ECL Western blotting detection reagents using a ChemiDoc MP system. Each gel was loaded with molecular weight markers in the range of 12 to 225 kDa (GE Healthcare). Glyceraldehyde‐3‐phosphate dehydrogenase (GAPDH) was utilized as a control for equal protein loading: membranes were stripped and re‐probed with anti‐GAPDH monoclonal antibody (Santa Cruz Biotechnology, Heidelberg, Germany). Stripping buffer contained 200 mM glycine, 0.1% SDS, and 1% Tween 20. Immunoblot images were quantified using ImageJ 1.52p software (NIH, USA).

[8] = tested on: LC3II and p62; assay: Western blot of autophagy markers (LC3II, p62); type: cell-based, human; details: for levels of LC3II: 6 h
Experimental: as §5
as §6, with “Each gel was loaded with molecular weight markers in the range of 12 to 225 kDa (GE Healthcare). Glyceraldehyde‐3‐phosphate dehydrogenase (GAPDH) was utilized as a control for equal protein loading: membranes were stripped and re‐probed with anti‐GAPDH monoclonal antibody (Santa Cruz Biotechnology, Heidelberg, Germany). Stripping buffer contained 200 mM glycine, 0.1% SDS, and 1% Tween 20.” left out

[9] = molecular target: T4, Cathepsin B (Homo sapiens, UniProt P07858); assay: Cathepsin B activity in cell lysates (Z‐Arg‐Arg‐AMC); type: cell-based; details: APPmut cells, 6 h treatment
T4 construct: The mixture for cathepsin B, containing 1 µg of cell lysate; endogenous in cells; host or cells: SH-SY5Y (control, APPwt- and APPmut-transfected)
Experimental: as §5
Cathepsin B proteolytic activity was measured using the fluorogenic peptide Z‐Arg‐Arg‐AMC at a final concentration of 50 µM, as previously described.^[ [24] ^] The mixture for cathepsin B, containing 1 µg of cell lysate, was pre‐incubated in 100 mM phosphate buffer pH 6.0, 1 mM EDTA, and 2 mM dithiothreitol for 5 min at 30°C. Upon the addition of the substrate, the mixture was incubated for 15 min at 30°C. The fluorescent signal released by the hydrolyzed 7‐amino‐4‐methyl‐coumarin (AMC, λexc = 365 nm, λem = 449 nm) was detected on a SpectraMax Gemini XPS microplate reader.

[10] = tested on: Aβ(1‐42); assay: Quantification of Aβ(1‐42) by ELISA in medium and cellular extracts; type: cell-based, human; details: 24 h, 5 µM; for Aβ(1‐42) levels: APPwt cells
Experimental: Levels of Aβ(1‐42) secreted into the medium and present in cellular extracts were determined after PVLs treatment using the Human Aβ42 solid‐phase sandwich ELISA Kit from Invitrogen, following the manufacturer's instructions. For Aβ quantification in cell medium, culture medium was collected after neuronal cells treatment, centrifuged at 300 × g for 10 min to remove non adherent cells and debris and then treated with protease inhibitors.

[11] = tested on: SH‐SY5Y control and transfected cells; assay: MTT cell viability assay; type: cell-based, human; details: 24 h exposure, 10 µM, data not shown
Experimental: as §5

[12] = molecular target: T5, 20S proteasome (Homo sapiens, UniProt P28072+P28074+Q99436); assay: 20S proteasome activity in cell lysates (fluorimetric); type: cell-based; details: cellular lysates, 1 and 5 µM, 6 and 24 h
T5 construct: The incubation mixture contained 1 µg of cell lysate, the appropriate substrate; endogenous in cells; host or cells: SH-SY5Y (control, APPwt- and APPmut-transfected); only APP is transfected, the proteasome is endogenous
T5 sequence (P28074 60-263): T3 sequence (P28074 60-263)
T5 sequence (Q99436 44-277): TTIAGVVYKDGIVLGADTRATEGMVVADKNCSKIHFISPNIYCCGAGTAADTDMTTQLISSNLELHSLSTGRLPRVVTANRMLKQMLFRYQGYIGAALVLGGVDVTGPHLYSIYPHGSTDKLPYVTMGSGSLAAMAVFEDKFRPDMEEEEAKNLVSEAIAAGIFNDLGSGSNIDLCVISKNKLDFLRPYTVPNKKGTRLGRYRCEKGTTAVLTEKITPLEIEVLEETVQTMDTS
T5 sequence (P28072 1-239): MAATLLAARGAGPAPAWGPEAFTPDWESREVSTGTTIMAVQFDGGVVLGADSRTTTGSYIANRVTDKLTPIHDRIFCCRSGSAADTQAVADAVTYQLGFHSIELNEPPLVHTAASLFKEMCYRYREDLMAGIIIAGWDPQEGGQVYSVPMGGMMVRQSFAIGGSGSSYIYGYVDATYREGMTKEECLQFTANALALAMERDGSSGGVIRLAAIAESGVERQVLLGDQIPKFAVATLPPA
Experimental: as §3, §4

[13] = 30 min preincubation, 37°C, read-out: IC50 ChT‐L Constitutive proteasome
[14] = read-out: IC50 BrAAP Constitutive proteasome
[15] = read-out: IC50 PGPH Constitutive proteasome
[16] = read-out: IC50 T‐L Constitutive proteasome
[17] = 30 min preincubation, 37°C, read-out: IC50 ChT‐L Immunoproteasome
[18] = read-out: IC50 BrAAP Immunoproteasome
[19] = read-out: IC50 PGPH Immunoproteasome
[20] = read-out: IC50 T‐L Immunoproteasome
[21] = 6 h exposure, control and transfected SH‐SY5Y cells
[22] = 24 h treatment, mainly in APPmut cells exposed to C1

Structure (SMILES) | IC50 [4, 13] [nM] | IC50 [4, 14] [nM] | IC50 [4, 15] [nM] | IC50 [4, 16] [nM] | IC50 [5, 17] [nM] | IC50 [5, 18] [nM] | IC50 [5, 19] [nM] | IC50 [5, 20] [nM] | ChT‐L residual activity, 26S proteasome [6] [%] | levels of Ub‐conjugates and p27 [7, 21] | levels of Ub‐conjugates and p27 [7, 22] | inhibition at 5 µM [9] [%] | Aβ(1‐42) levels [10] | also measured
O=C1CCC(Cc2cc(O)cc(O)c2)O1 (centres unmarked) [5‐(3ʹ,5ʹ‐dihydroxyphenyl)‐γ‐valerolactone] | – | – | – | – | – | – | – | – | – | – | – | – | – | neurites outgrowth and elongation [1]: significantly induced; BBB permeability [2]: slightly higher
O=C1CC[C@H](Cc2ccc(O)c(O)c2)O1 [(R)‐5‐(3ʹ,4ʹ‐dihydroxyphenyl)‐γ‐valerolactone] | – | – | – | – | – | – | – | – | – | – | – | – | – | protection from increased production of reactive oxygen species [3]: protect brown adipocytes
O=C1CCC(Cc2ccc(O)cc2)O1 (centres unmarked) [Compound C1, 5‐(4ʹ‐hydroxyphenyl)‐γ‐valerolactone] | 120 ± 12.1 | 243 ± 20.1 | 62.8 ± 58.7 | 13 ± 2.1 | 126 ± 11.3 | 218 ± 19.6 | 41.8 ± 3.8 | 227 ± 13.2 | 30 | no particular effect | evident increase | 20 | significantly reduced | levels of LC3II ([8]; APPmut cells): increased
O=C1CCC(Cc2ccc(O)c(O)c2)O1 (centres unmarked) [Compound C2, 5‐(3ʹ,4ʹ‐dihydroxyphenyl)‐γ‐valerolactone] | 16.2 ± 1.2 | 256 ± 14.4 | 85.8 ± 7.8 | 87.4 ± 7.9 | 238 ± 16.7 | 61.3 ± 5.7 | 114 ± 19.7 | 334 ± 28.9 | – | no particular effect | evident increase | 20 | did not induce any change | number of APPmut viable cells (MTT) [11]: minor reduction; proteasome inhibition, comparison among the three tested compounds [12]: the least efficient; levels of LC3II ([8]; APPwt cells): increased
O=C1CCC(Cc2ccc(OS(=O)(=O)O)c(O)c2)O1 (centres unmarked) [Compound C3, 5‐(3ʹ‐hydroxyphenyl)‐γ‐valerolactone‐4ʹ‐sulfate] | 109 ± 11 | 302 ± 27.8 | 104 ± 11 | 56.8 ± 2.3 | 1450 ± 153 | 88.4 ± 7 | 72.7 ± 5.7 | 588 ± 47.6 | 60 | no particular effect | evident increase | 30 | – | p62 degradation ([8]; APPwt cells, long‐term (24 h) exposure): favored p62 degradation; reduction of Aβ(1‐42) in cell extracts ([10]; APPmut cells): 35%; reduction of Aβ(1‐42) in cell medium ([10]; APPmut cells): 35%
